Results published in PubChem BioAssay AID1259407 (Chemical Carcinogenesis Research Information System (CCRIS), 2018).
Activity calls are given as the source filed them. The rule behind the calls is not given here.

Test system: CCRIS mutagenicity, Ames/micronucleus/aberration tests
Test: CCRIS mutagenicity studies
[1] = Test System: AMES SALMONELLA TYPHIMURIUM, Strain/Indicator: TA98, Metabolic Activation: NONE, Method: PREINCUBATION
[2] = Test System: AMES SALMONELLA TYPHIMURIUM, Strain/Indicator: TA100, Metabolic Activation: NONE, Method: STANDARD PLATE
[3] = Test System: AMES SALMONELLA TYPHIMURIUM, Strain/Indicator: TA100, Metabolic Activation: NONE, Method: PREINCUBATION
[4] = Test System: AMES SALMONELLA TYPHIMURIUM, Strain/Indicator: TA102, Metabolic Activation: NONE, Method: PREINCUBATION

Question: CN(N=O)C(=O)NC1O[C@H](CO)[C@@H](O)[C@H](O)[C@H]1O (stereo partly specified) was tested. Which mutagenic call (Test System: CHINESE HAMSTER V-79, Strain/Indicator: V-79/8-AZAGUANINE, Metabolic Activation: NONE, Method: STANDARD PLATE) did it give?
Answer: active; positive

Question: What does the source list for CC(=O)[C@]1(O)Cc2c(O)c3c(c(O)c2[C@@H](O[C@H]2C[C@H](N)[C@H](O)[C@H](C)O2)C1)C(=O)c1c(O)cccc1C3=O?
Answer: mutagenic call (Test System: AMES SALMONELLA TYPHIMURIUM, Strain/Indicator: GW257, Metabolic Activation: NONE, Method: STANDARD PLATE): active; positive; mutagenic call (Test System: AMES SALMONELLA TYPHIMURIUM, Strain/Indicator: TA97, Metabolic Activation: NONE, Method: STANDARD PLATE): active; positive; mutagenic call [1]: active; positive; mutagenic call (Test System: AMES SALMONELLA TYPHIMURIUM, Strain/Indicator: TA98, Metabolic Activation: NONE, Method: STANDARD PLATE): active; positive; mutagenic call (Test System: AMES SALMONELLA TYPHIMURIUM, Strain/Indicator: TA98, Metabolic Activation: RAT, LIVER, S-9, AROCLOR 1254, Method: STANDARD PLATE): active; positive; mutagenic call [2]: active; positive; mutagenic call (Test System: AMES SALMONELLA TYPHIMURIUM, Strain/Indicator: TA104, Metabolic Activation: NONE, Method: STANDARD PLATE): inactive; negative; mutagenic call (Test System: AMES SALMONELLA TYPHIMURIUM, Strain/Indicator: TA1538, Metabolic Activation: NONE, Method: STANDARD PLATE): active; positive; mutagenic call (Test System: AMES SALMONELLA TYPHIMURIUM, Strain/Indicator: TA2637, Metabolic Activation: NONE, Method: STANDARD PLATE): active; positive

Question: With CC(=O)C=O as the compound, how does the mutagenic call [1] read?
Answer: active; positive

Question: What about the mutagenic call (Test System: AMES SALMONELLA TYPHIMURIUM, Strain/Indicator: TA98, Metabolic Activation: RAT, LIVER, S-9, AROCLOR 1254, Method: PREINCUBATION) of the same compound?
Answer: inactive; negative

Question: What about the mutagenic call [3] of the same compound?
Answer: active; positive

Question: What about the mutagenic call [2] of the same compound?
Answer: active; positive

Question: And the mutagenic call (Test System: AMES SALMONELLA TYPHIMURIUM, Strain/Indicator: TA100, Metabolic Activation: RAT, LIVER, S-9, AROCLOR 1254, Method: PREINCUBATION)?
Answer: active; positive

Question: And the mutagenic call [4]?
Answer: active; positive

Question: And the mutagenic call (Test System: AMES SALMONELLA TYPHIMURIUM, Strain/Indicator: TA102, Metabolic Activation: RAT, LIVER, S-9, AROCLOR 1254, Method: PREINCUBATION)?
Answer: active; positive

Question: And the mutagenic call (Test System: AMES SALMONELLA TYPHIMURIUM, Strain/Indicator: TA102, Metabolic Activation: RAT, LIVER, S-9, PHENOBARBITAL AND BETA-NAPHTHOFLAVONE, Method: PREINCUBATION)?
Answer: active; positive

Question: And the mutagenic call (Test System: AMES SALMONELLA TYPHIMURIUM, Strain/Indicator: TA104, Metabolic Activation: NONE, Method: PREINCUBATION)?
Answer: active; positive

Question: And the mutagenic call (Test System: AMES SALMONELLA TYPHIMURIUM, Strain/Indicator: TA104, Metabolic Activation: RAT, LIVER, S-9, PHENOBARBITAL AND BETA-NAPHTHOFLAVONE, Method: PREINCUBATION)?
Answer: active; positive

Question: What about the mutagenic call (Test System: AMES SALMONELLA TYPHIMURIUM, Strain/Indicator: TA2638, Metabolic Activation: NONE, Method: PREINCUBATION) of the same compound?
Answer: active; positive

Question: What about the mutagenic call (Test System: AMES SALMONELLA TYPHIMURIUM, Strain/Indicator: TA2659, Metabolic Activation: NONE, Method: PREINCUBATION) of the same compound?
Answer: active; positive

Question: What about the mutagenic call (Test System: CHINESE HAMSTER V-79, Strain/Indicator: V-79/6-THIOGUANINE, Metabolic Activation: NONE, Method: PREINCUBATION) of the same compound?
Answer: active; positive

Question: What about the mutagenic call (Test System: CHINESE HAMSTER V-79, Strain/Indicator: V-79/6-THIOGUANINE, Metabolic Activation: RAT HEPATOCYTES, Method: PREINCUBATION) of the same compound?
Answer: active; positive

Question: Which results are given for COc1cc(-c2cc(OC)cc(C(C)(C)C)c2O)c(O)c(C(C)(C)C)c1?
Answer: mutagenic call (Test System: AMES SALMONELLA TYPHIMURIUM, Strain/Indicator: TA97, Metabolic Activation: NONE, Method: PREINCUBATION): inactive; negative; mutagenic call (Test System: AMES SALMONELLA TYPHIMURIUM, Strain/Indicator: TA97, Metabolic Activation: RAT, LIVER, S-9, PCB, Method: PREINCUBATION): inactive; negative; mutagenic call [1]: inactive; negative; mutagenic call (Test System: AMES SALMONELLA TYPHIMURIUM, Strain/Indicator: TA98, Metabolic Activation: RAT, LIVER, S-9, PCB, Method: PREINCUBATION): inactive; negative; mutagenic call [3]: inactive; negative; mutagenic call (Test System: AMES SALMONELLA TYPHIMURIUM, Strain/Indicator: TA100, Metabolic Activation: RAT, LIVER, S-9, PCB, Method: PREINCUBATION): inactive; negative; mutagenic call [4]: inactive; negative; mutagenic call (Test System: AMES SALMONELLA TYPHIMURIUM, Strain/Indicator: TA102, Metabolic Activation: RAT, LIVER, S-9, PCB, Method: PREINCUBATION): inactive; negative

Question: How did the mutagenic call (End Point: In vitro chromosomal aberrations, Test System: V79 Chinese hamster fibroblasts, Metabolic Activation: None) turn out when Nc1cc([N+](=O)[O-])c(CO)c([N+](=O)[O-])c1 was run?
Answer: inactive; negative

Question: What about the mutagenic call (Test System: Ames Salmonella typhimurium, Strain/Indicator: TA98, Metabolic Activation: None, Method: Standard plate) of the same compound?
Answer: active; positive

Question: And the mutagenic call (Test System: Ames Salmonella typhimurium, Strain/Indicator: TA98, Metabolic Activation: Rat, Liver, S-9, Method: Standard plate)?
Answer: active; positive

Question: What about the mutagenic call (Test System: Ames Salmonella typhimurium, Strain/Indicator: TA98NR, Metabolic Activation: None, Method: Standard plate) of the same compound?
Answer: active; positive, ta98nr is the nitroreductase-deficient derivative of ta98.

Question: And the mutagenic call (Test System: Ames Salmonella typhimurium, Strain/Indicator: TA100, Metabolic Activation: None, Method: Standard plate)?
Answer: active; positive

Question: And the mutagenic call (Test System: Ames Salmonella typhimurium, Strain/Indicator: TA100, Metabolic Activation: Rat, Liver, S-9, Method: Standard plate)?
Answer: active; positive

Question: Which mutagenic call [1] does the source give for O=C(O)C(F)(F)C(F)(F)C(F)(F)C(F)(F)C(F)(F)C(F)(F)C(F)(F)C(F)(F)C(F)(F)F here?
Answer: inactive; negative

Question: And the mutagenic call (Test System: AMES SALMONELLA TYPHIMURIUM, Strain/Indicator: TA98, Metabolic Activation: RAT, LIVER, S-9, Method: PREINCUBATION)?
Answer: inactive; negative

Question: What about the mutagenic call [3] of the same compound?
Answer: inactive; negative

Question: What about the mutagenic call (Test System: AMES SALMONELLA TYPHIMURIUM, Strain/Indicator: TA100, Metabolic Activation: RAT, LIVER, S-9, Method: PREINCUBATION) of the same compound?
Answer: inactive; negative

Question: What about the mutagenic call (Test System: AMES SALMONELLA TYPHIMURIUM, Strain/Indicator: TA1535, Metabolic Activation: NONE, Method: PREINCUBATION) of the same compound?
Answer: inactive; negative

Question: And the mutagenic call (Test System: AMES SALMONELLA TYPHIMURIUM, Strain/Indicator: TA1535, Metabolic Activation: RAT, LIVER, S-9, Method: PREINCUBATION)?
Answer: inactive; negative

Question: What about the mutagenic call (Test System: AMES SALMONELLA TYPHIMURIUM, Strain/Indicator: TA1537, Metabolic Activation: NONE, Method: PREINCUBATION) of the same compound?
Answer: inactive; negative

Question: And the mutagenic call (Test System: AMES SALMONELLA TYPHIMURIUM, Strain/Indicator: TA1537, Metabolic Activation: RAT, LIVER, S-9, Method: PREINCUBATION)?
Answer: inactive; negative

Question: And the mutagenic call (Test System: AMES SALMONELLA TYPHIMURIUM, Strain/Indicator: TA1538, Metabolic Activation: NONE, Method: PREINCUBATION)?
Answer: inactive; negative

Question: What about the mutagenic call (Test System: AMES SALMONELLA TYPHIMURIUM, Strain/Indicator: TA1538, Metabolic Activation: RAT, LIVER, S=9, Method: PREINCUBATION) of the same compound?
Answer: inactive; negative

Question: What about the mutagenic call (Test System: CHINESE HAMSTER OVARY, Strain/Indicator: CHO-K1-BH4 (HGPRT), Metabolic Activation: NONE, Method: STANDARD PLATE) of the same compound?
Answer: inactive; negative

Question: And the mutagenic call (Test System: CHINESE HAMSTER OVARY, Strain/Indicator: CHO-K1-BH4 (HGPRT), Metabolic Activation: RAT, LIVER, S-9, Method: STANDARD PLATE)?
Answer: inactive; negative

Question: What about the mutagenic call (Test System: UDS RODENT HEPATOCYTES, Strain/Indicator: THY INCORP (NON-S-PHASE), Metabolic Activation: NONE, Method: AUTORADIOGRAPHY) of the same compound?
Answer: inactive; negative
